Data as given in US9918990B2, “Substituted pyrrolo[2,3-c]pyridines and pyrazolo[3,4-c]pyridines as BET protein inhibitors” (Incyte Corporation, priority 2013, dated 2018).
pIC50: −log10 of the molar value.

Legend:
C-myc = experiment: KMS.12.BM C-myc ELISA assay; assay type: cell-based; conditions: Homo sapiens; KMS.12.BM cells, 2 hours, concentration required for 50% C-myc inhibition
Outline: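 Human myeloma KMS.12.BM cells in RPMI/10% FBS were exposed to a compound concentration range for 2 h, then lysed with protease inhibitors. C-myc in clarified lysates was measured by ELISA. IC50 is the concentration giving 50% C-myc inhibition relative to untreated cells.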

BRD4-BD1 = BRD4-BD1 (Homo sapiens (Human), UniProt O60885); experiment: BRD4 AlphaScreen assay, BRD4-BD1; assay type: binding; conditions: H4Ac4 peptide, 75 min, room temperature, read-out: BRD4 BD-1 enzyme IC50
Outline: (§1)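 AlphaScreen read after 75 min dark incubation at room temperature, inhibitors serially diluted in DMSO and added before other components. IC50 from fit of percent control activity versus log inhibitor concentration.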

KMS.12.BM cells = experiment: KMS.12.BM cell viability assay (Cell Titer-GLO, ATP quantitation); assay type: cell-based; conditions: Homo sapiens, 72 h, 3 days, concentration required for 50% cell death, read-out: KMS cellular IC50
Outline: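 Human myeloma KMS.12.BM cells, 5000 cells/well in RPMI with 10% FBS, were exposed to a compound concentration range for 3 days. Viability was read by Cell Titer-GLO ATP luminescence relative to untreated cells; IC50 is the concentration giving 50% cell death.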

BRD4-BD2 = BRD4-BD2 (Homo sapiens (Human), UniProt O60885); experiment: BRD4 AlphaScreen assay, BRD4-BD2; assay type: binding; conditions: H4Ac4 peptide, 75 min, room temperature, read-out: BRD4 BD-2 enzyme IC50
Outline: as §1

Row | SMILES | pIC50 (C-myc) | pIC50 (BRD4-BD1) | pIC50 (KMS.12.BM cells) | pIC50 (BRD4-BD2)
1 | CC(=O)NCc1nc2c(Oc3ccccc3)c(-c3cn(C)c(=O)c4[nH]ccc34)ccc2o1 [Example 104, N-{[5-(6-Methyl-7-oxo-6,7-dihydro-1H-pyrrolo[2,3-c]pyridin-4-yl)-4-phenoxy-1,3-benzoxazol-2-yl]methyl}acetamide] | ≥ 6.00 | > 7.00 | ≥ 6.00 | > 7.00
2 | Cn1cc(-c2ccc3oc(CNS(C)(=O)=O)nc3c2Oc2ccccc2)c2cc[nH]c2c1=O [Example 105, N-{[5-(6-Methyl-7-oxo-6,7-dihydro-1H-pyrrolo[2,3-c]pyridin-4-yl)-4-phenoxy-1,3-benzoxazol-2-yl]methyl}methanesulfonamide] | ≥ 6.00 | > 7.00 | ≥ 6.00 | > 7.00
3 | Cn1cc(-c2ccc3oc(CNC(=O)c4ccccc4)nc3c2Oc2ccccc2)c2cc[nH]c2c1=O [Example 106, N-{[5-(6-methyl-7-oxo-6,7-dihydro-1H-pyrrolo[2,3-c]pyridin-4-yl)-4-phenoxy-1,3-benzoxazol-2-yl]methyl}benzamide] | 5.00 to 6.00 | > 7.00 | ≥ 6.00 | > 7.00
4 | Cn1cc(-c2ccc3oc(CNC(=O)Cc4ccccc4)nc3c2Oc2ccccc2)c2cc[nH]c2c1=O [Example 107, N-{[5-(6-Methyl-7-oxo-6,7-dihydro-1H-pyrrolo[2,3-c]pyridin-4-yl)-4-phenoxy-1,3-benzoxazol-2-yl]methyl}-2-phenylacetamide] | ≥ 6.00 | > 7.00 | ≥ 6.00 | > 7.00
5 | Cn1cc(-c2ccc3oc(CNC(=O)C4CC4)nc3c2Oc2ccccc2)c2cc[nH]c2c1=O [Example 108, N-{[5-(6-Methyl-7-oxo-6,7-dihydro-1H-pyrrolo[2,3-c]pyridin-4-yl)-4-phenoxy-1,3-benzoxazol-2-yl]methyl}cyclopropanecarboxamide] | ≥ 6.00 | > 7.00 | ≥ 6.00 | > 7.00
6 | Cn1cc(-c2ccc3oc(CNC(=O)CC4CCCC4)nc3c2Oc2ccccc2)c2cc[nH]c2c1=O [Example 109, 2-Cyclopentyl-N-{[5-(6-methyl-7-oxo-6,7-dihydro-1H-pyrrolo[2,3-c]pyridin-4-yl)-4-phenoxy-1,3-benzoxazol-2-yl]methyl}acetamide] | 5.00 to 6.00 | > 7.00 | ≥ 6.00 | > 7.00
7 | Cn1cc(-c2ccc3c(ncn3CCC#N)c2Oc2ccccc2)c2cc[nH]c2c1=O [Example 113, 3-[5-(6-Methyl-7-oxo-6,7-dihydro-1H-pyrrolo[2,3-c]pyridin-4-yl)-4-phenoxy-1H-benzimidazol-1-yl]propanenitrile] | ≥ 6.00 | > 7.00 | ≥ 6.00 | > 7.00
